Results: patent publication US9688865B2, “Liquid composition, pigment dispersion liquid, and aqueous ink composition for ink jet recording” (Seiko Epson Corporation, priority 2015, dated 2017)

Assays:
[1] = Distribution coefficient of water-octanol (log P), OECD Test Guideline 107

| logP (physchem) | logP [1] | SMILES |
| --- | --- | --- |
| -2.36 | – | OCC(CO)(CO)CO [Pentaerythritol] |
| – | 2.29 | CCCCCCCC(=O)OCC(CO)(CO)CO [Pentaerythritol caprylate, pentaerythritol caprylate] |
